Laboratory results as given in patent publication US11083196B2, “Microbiocidal oxadiazole derivatives” (SYNGENTA PARTICIPATIONS AG, priority 2016, dated 2021).
Where “and” joins values, the source holds several entries; their conditions need not be identical. Equal entries are not always repeated.

Key:
[1] = system: Puccinia recondita f. sp. tritici; assay: Fungicidal activity against Puccinia recondita f. sp. tritici / wheat / leaf disc curative (brown rust); format: in vivo; details: foliar, 144 h, wheat leaf segments cv. Kanzler, applied 1 day after inoculation, assessed 6-8 days after application, compared to untreated control
Description: Leaf disks or leaf segments of various plant species are cut from plants grown in a greenhouse. The cut leaf disks or segments are placed in multiwell plates (24-well format) onto water agar. The leaf disks are sprayed with a test solution before (preventative) or after (curative) inoculation. Compounds to be tested are prepared as DMSO solutions (max. 10 mg/ml) which are diluted to the appropriate concentration with 0.025% Tween20 just before spraying. The inoculated leaf disks or segments are incubated under defined conditions (temperature, relative humidity, light, etc.) according to the respective test system. A single evaluation of disease level is carried out 3 to 14 days after inoculation, depending on the pathosystem. Percent disease control relative to the untreated check leaf disks or segments is then calculated. Wheat leaf segments cv. Kanzler are placed on agar in multiwell plates (24-well format). The leaf segments are inoculated with a spore suspension of the fungus. Plates are stored in darkness at 19° C. and 75% rh. The formulated test compound diluted in water is applied 1 day after inoculation. The leaf segments are incubated at 19° C. and 75% rh under a light regime of 12 h light/12 h darkness in a climate cabinet and the activity of a compound is assessed as percent disease control compared to untreated when an appropriate level of disease damage appears in untreated check leaf segments (6-8 days after application).

Phakopsora pachyrhizi = assay: Fungicidal activity against Phakopsora pachyrhizi / soybean / leaf disc preventative (Asian soybean rust); format: in vivo; details: foliar, 288 h, soybean leaf disks, inoculated one day after application, assessed 12-14 days after application, compared to untreated control
Description: Leaf disks or leaf segments of various plant species are cut from plants grown in a greenhouse. The cut leaf disks or segments are placed in multiwell plates (24-well format) onto water agar. The leaf disks are sprayed with a test solution before (preventative) or after (curative) inoculation. Compounds to be tested are prepared as DMSO solutions (max. 10 mg/ml) which are diluted to the appropriate concentration with 0.025% Tween20 just before spraying. The inoculated leaf disks or segments are incubated under defined conditions (temperature, relative humidity, light, etc.) according to the respective test system. A single evaluation of disease level is carried out 3 to 14 days after inoculation, depending on the pathosystem. Percent disease control relative to the untreated check leaf disks or segments is then calculated. Soybean leaf disks are placed on water agar in multiwell plates (24-well format) and sprayed with the formulated test compound diluted in water. One day after application leaf discs are inoculated by spraying a spore suspension on the lower leaf surface. After an incubation period in a climate cabinet of 24-36 hours in darkness at 20° C. and 75% rh leaf disc are kept at 20° C. with 12 h light/day and 75% rh. The activity of a compound is assessed as percent disease control compared to untreated when an appropriate level of disease damage appears in untreated check leaf disks (12-14 days after application).

[2] = system: Glomerella lagenarium (Colletotrichum lagenarium); assay: Fungicidal activity against Glomerella lagenarium (Colletotrichum lagenarium), liquid culture / cucumber / preventative (anthracnose); format: cell-based; details: Colletotrichum orbiculare, liquid culture (PDB), growth inhibition measured photometrically 3-4 days after application, compared to untreated control
Description: Mycelia fragments or conidia suspensions of a fungus, prepared either freshly from liquid cultures of the fungus or from cryogenic storage, are directly mixed into nutrient broth. DMSO solutions of the test compound (max. 10 mg/ml) is diluted with 0.025% Tween20 by a factor of 50 and 10 μl of this solution is pipetted into a microtiter plate (96-well format). The nutrient broth containing the fungal spores/mycelia fragments is then added to give an end concentration of the tested compound. The test plates are incubated in the dark at 24° C. and 96% relative humidity. The inhibition of fungal growth is determined photometrically after 2 to 7 days, depending on the pathosystem, and percent antifungal activity relative to the untreated check is calculated. Conidia of the fungus from cryogenic storage are directly mixed into nutrient broth (PDB potato dextrose broth). After placing a (DMSO) solution of test compound into a microtiter plate (96-well format), the nutrient broth containing the fungal spores is added. The test plates are incubated at 24° C. and the inhibition of growth is measured photometrically 3-4 days after application.

[3] = system: Puccinia recondita f. sp. tritici; assay: Fungicidal activity against Puccinia recondita f. sp. tritici / wheat / leaf disc preventative (brown rust); format: in vivo; details: foliar, 168 h, wheat leaf segments cv. Kanzler, inoculated 1 day after application, assessed 7-9 days after application, compared to untreated control
Description: Leaf disks or leaf segments of various plant species are cut from plants grown in a greenhouse. The cut leaf disks or segments are placed in multiwell plates (24-well format) onto water agar. The leaf disks are sprayed with a test solution before (preventative) or after (curative) inoculation. Compounds to be tested are prepared as DMSO solutions (max. 10 mg/ml) which are diluted to the appropriate concentration with 0.025% Tween20 just before spraying. The inoculated leaf disks or segments are incubated under defined conditions (temperature, relative humidity, light, etc.) according to the respective test system. A single evaluation of disease level is carried out 3 to 14 days after inoculation, depending on the pathosystem. Percent disease control relative to the untreated check leaf disks or segments is then calculated. Wheat leaf segments cv. Kanzler are placed on agar in multiwell plates (24-well format) and sprayed with the formulated test compound diluted in water. The leaf disks are inoculated with a spore suspension of the fungus 1 day after application. The inoculated leaf segments are incubated at 19° C. and 75% rh under a light regime of 12 h light/12 h darkness in a climate cabinet and the activity of a compound is assessed as percent disease control compared to untreated when an appropriate level of disease damage appears in untreated check leaf segments (7-9 days after application).

SMILES	melting point	pest or weed control at 200 ppm [1] [%]	pest or weed control at 200 ppm (Phakopsora pachyrhizi) [%]	inhibition of growth at 20 ppm [2] [%]	pest or weed control at 200 ppm [3] [%]
O=C(C1CC1)N1CCCC1c1ccc(-c2noc(C(F)(F)F)n2)cc1 (centres unmarked) [Compound A-36, cyclopropyl-[2-[4-[5-(trifluoromethyl)-1,2,4-oxadiazol-3-yl]phenyl]pyrrolidin-1-yl]methanone]		≥ 80	≥ 80	≥ 80	
COCC1=NOC(c2ccc(-c3noc(C(F)(F)F)n3)cc2)C1 (centres unmarked) [Compound A-9, 3-[4-[3-(methoxymethyl)-4,5-dihydroisoxazol-5-yl]phenyl]-5-(trifluoromethyl)-1,2,4-oxadiazole]	59 to 63 °C	≥ 80	≥ 80	≥ 80	≥ 80
CC1(C)COC(c2ccc(-c3noc(C(F)(F)F)n3)cc2)NC1=O (centres unmarked) [Compound A-10, 5,5-dimethyl-2-[4-[5-(trifluoromethyl)-1,2,4-oxadiazol-3-yl]phenyl]-1,3-oxazinan-4-one]	187.3 to 189 °C		≥ 80	≥ 80	≥ 80
CC1(C)CN=C(c2ccc(-c3noc(C(F)(F)F)n3)cc2)O1 [Compound A-21, 3-[4-(5,5-dimethyl-4H-oxazol-2-yl)phenyl]-5-(trifluoromethyl)-1,2,4-oxadiazole]	178 to 180 °C	≥ 80	≥ 80	≥ 80	≥ 80
CCCC1=NOC(c2ccc(-c3noc(C(F)(F)F)n3)cc2)C1 (centres unmarked) [Compound A-6, 3-[4-(3-propyl-4,5-dihydroisoxazol-5-yl)phenyl]-5-(trifluoromethyl)-1,2,4-oxadiazole]	79 to 83 °C	≥ 80	≥ 80	≥ 80	≥ 80
CN(C)C(=O)C(=O)NC1CSC(c2ccc(-c3noc(C(F)(F)F)n3)c(F)c2)=N1 (centres unmarked) [Compound A-24, N-[2-[3-fluoro-4-[5-(trifluoromethyl)-1,2,4-oxadiazol-3-yl]phenyl]-4,5-dihydrothiazol-4-yl]-N′,N′-dimethyl-oxamide]	120 to 165 °C	≥ 80		≥ 80	≥ 80
CCC1=NOC(c2ccc(-c3noc(C(F)(F)F)n3)cc2)C1 (centres unmarked) [Compound A-5, 3-[4-(3-ethyl-4,5-dihydroisoxazol-5-yl)phenyl]-5-(trifluoromethyl)-1,2,4-oxadiazole]	75 to 80 °C	≥ 80	≥ 80	≥ 80	≥ 80
FC(F)(F)c1nc(-c2ccc(C3=NCCO3)cc2)no1 [Compound A-3, 3-[4-(4,5-dihydrooxazol-2-yl)phenyl]-5-(trifluoromethyl)-1,2,4-oxadiazole]	120 to 125 °C	≥ 80	≥ 80		≥ 80
CS(=O)(=O)N1CCCC1c1ccc(-c2noc(C(F)(F)F)n2)cc1 (centres unmarked) [Compound A-30, 3-[4-(1-methylsulfonyl-pyrrolidin-2-yl)phenyl]-5-(trifluoromethyl)-1,2,4-oxadiazole]	117.7 to 118.6 °C	≥ 80		≥ 80	≥ 80
FC(F)(F)c1nc(-c2ccc(C3CC(C4CC4)=NO3)cc2)no1 (centres unmarked) [Compound A-12, 3-[4-(3-cyclopropyl-4,5-dihydroisoxazol-5-yl)phenyl]-5-(trifluoromethyl)-1,2,4-oxadiazole]	109 to 112 °C		≥ 80	≥ 80	≥ 80
CC(C)(C)[S+]([O-])NC1CSC(c2ccc(-c3noc(C(F)(F)F)n3)cc2)=N1 (centres unmarked) [Compound A-29, 2-methyl-N-[2-[4-[5-(trifluoromethyl)-1,2,4-oxadiazol-3-yl]phenyl]-4,5-dihydrothiazol-4-yl]propane-2-sulfinamide]		≥ 80	≥ 80	≥ 80	≥ 80
CCOCc1cc(-c2ccc(-c3noc(C(F)(F)F)n3)cc2)no1 [Compound C-5, 3-[4-[5-(ethoxymethyl)isoxazol-3-yl]phenyl]-5-(trifluoromethyl)-1,2,4-oxadiazole]			≥ 80		
COCC(=O)NC1CSC(c2ccc(-c3noc(C(F)(F)F)n3)cc2)=N1 (centres unmarked) [Compound A-28, 2-methoxy-N-(2-[4-[5-(trifluoromethyl)-1,2,4-oxadiazol-3-yl]phenyl]-4,5-dihydrothiazol-4-yl]acetamide]		≥ 80	≥ 80	≥ 80	≥ 80

Continued, in another order:

melting point	SMILES	pest or weed control at 200 ppm [1] [%]	pest or weed control at 200 ppm (Phakopsora pachyrhizi) [%]	inhibition of growth at 20 ppm [2] [%]	pest or weed control at 200 ppm [3] [%]
109 to 111 °C	Cc1cc(C)n(-c2ccc(-c3noc(C(F)(F)F)n3)cc2)n1 [Compound E-1, 3-[4-(3,5-dimethylpyrazol-1-yl)phenyl]-5-(trifluoromethyl)-1,2,4-oxadiazole]	≥ 80		≥ 80	≥ 80
69 to 71 °C	CC(=O)OCc1cnc(-c2ccc(-c3noc(C(F)(F)F)n3)cc2)o1 [Compound C-1, [2-[4-[5-(trifluoromethyl)-1,2,4-oxadiazol-3-yl]phenyl]oxazol-5-yl]methyl acetate]	≥ 80	≥ 80		≥ 80
155 to 160 °C	Nc1ccc(-c2ccc(-c3noc(C(F)(F)F)n3)cc2)cn1 [Compound D-12, 5-[4-[5-(trifluoromethyl)-1,2,4-oxadiazol-3-yl]phenyl]pyridin-2-amine]		≥ 80	≥ 80	≥ 80
106 to 107 °C	FC(F)(F)c1nc(-c2ccc(-c3nc(CCl)co3)cc2)no1 [Compound C-4, 3-[4-[4-(chloromethyl)oxazol-2-yl]phenyl]-5-(trifluoromethyl)-1,2,4-oxadiazole]		≥ 80	≥ 80	
110 to 111 °C and 109 to 111 °C	Cc1cnc(-c2ccc(-c3noc(C(F)(F)F)n3)cc2)o1 [Compound C-2, 3-[4-(5-methyloxazol-2-yl)phenyl]-5-(trifluoromethyl)-1,2,4-oxadiazole]	≥ 80	≥ 80		≥ 80
